Take `COCCOCCn1cc(C(=O)NCc2ccc(Cl)cc2)c(=O)c2cc(CN3CC[C@@H](O)C3)ccc21`: the melting point lay within 106 to 109 °C.

In turn, `CCCCc1nc2ccccc2n1Cc1ccc(-c2ccccc2C(=O)O)cc1` came in with a melting point of 225 to 227 °C.

As for `CCN(C)C(=O)/C=C/CSc1nc(N)cc(Cl)n1`, the melting point lay in the range of 170 to 172 °C.

The compound `O=C(NC(Cc1ccc(OCc2ccc(F)cc2)cc1)C(=O)O)c1cc2cc(-c3ccc(Cl)cc3)ccc2s1` (configuration not stated) registered a melting point of 189 to 190 °C.

`CCCCCCCC(=O)Oc1ccc(-c2ccc(C#N)cc2)cc1` had a melting point of 77.5 to 77.9 °C.

Compound `CC1(C)OCCN1C(=O)C(Cl)Cl` gave a melting point of 113 to 115 °C.

`COP(=S)(OC)Oc1ncn(-c2ccccn2)n1` registered a melting point of 88 to 91 °C.

Take `CCOC(=O)COc1c(F)cc(S(=O)(=O)CCNS(=O)(=O)c2ccc(Cl)cc2)cc1F`: the melting point fell in the range of 166 to 167 °C.

In turn, `CC(C)n1nc(-c2c(-c3ccccc3)nn3ccc(C(=O)N4CCCC4)cc23)ccc1=O` had a melting point of 189 to 190 °C.

`COc1cc(C)ccc1CNC(=O)C(=O)NCCc1ccc(C)cn1` displayed a melting point of 116 to 117 °C.

In the case of `CC(C(N)=O)c1ccc2c(=O)c3ccccc3ccc2c1` (configuration not stated), the melting point lay in the range of 158 to 159 °C.

As to `OC1CCCc2nc3ccccc3c(NCc3ccccc3C(F)(F)F)c21` (configuration not stated), the melting point lay in the range of 158 to 160 °C.

`CC(NC(=O)c1cc2ccccc2[nH]1)C(=O)N(c1ccccc1)c1ccccc1` (racemic) registered a melting point of 242 °C.

Turning to `CN1CCN(c2cccc3ccc(-c4cccc(F)c4)cc23)CC1`, the melting point was 116 °C.

The compound `CC=Cc1nc2ccc(C)cc2c(=O)[nH]1` gave a melting point of 232 to 233 °C.

The compound `CCOc1cc2c(cc1OC)C(c1ccc(C(=O)N(C(C)C)[C@@H](C)CO)cc1)=N[C@@H]1CCN(C)C[C@H]21` yielded a melting point of 104 to 112 °C.

`CC(C)Oc1ccc(-c2[nH]c(-c3ccc([N+](=O)[O-])cc3)nc2C(=O)Nc2nccs2)cc1` came in with a melting point of 267 to 270 °C.

On to `COC(=O)C(CC(C)C)NC(=O)C(CC(=O)c1ccccc1)Cc1ccccc1` (configuration not stated), for which the melting point fell in the range of 81 to 83 °C.

`O=C(O)c1ccc(CN([C@@H](CO)c2ccccc2)S(=O)(=O)c2ccc(Cl)cc2)cc1` had a melting point of 85 to 87 °C.

For the compound `Cn1nnnc1CN1C2CCC1CC(Oc1ccc(Cl)c(Cl)c1)C2` (configuration not stated), the melting point lay within 119 to 120 °C.

Turning to `CC(C)(C)CC(C)(C)c1cc(N=Nc2ccc(C(F)(F)F)cc2[N+](=O)[O-])c(O)c(C(C)(C)c2ccccc2)c1`, the melting point was 101 to 105 °C.

`COc1ccc(S(=O)(=O)n2c(CCCC(=O)O)cc3nc(Cl)ccc32)cc1` gave a melting point of 189 °C.

In turn, `CCn1ncc2c3onc(-c4cccc(O)c4)c3cnc21` came in with a melting point of 187 to 188 °C.

Regarding `CC(C#N)c1ccc2c(=O)c3ccccc3ccc2c1` (configuration not stated), the melting point fell in the range of 108 to 109 °C.

In turn, `CN(C)CCNC(=O)c1cc(Oc2ccc3c(C(=O)Nc4cccc(C(F)(F)F)c4)cccc3c2)ccn1` came in with a melting point of 80 to 82 °C.

With `COc1ccc(NC(=O)C2CCc3c(OCc4ccccc4)cccc32)c(OC)c1` (configuration not stated), the melting point came to 130 °C.

`CCN(CC)C(=O)c1cc2ccccc2c(-c2ccccc2)n1` displayed a melting point of 72 °C.

The compound `Cc1cn(N=Cc2cccnc2)c(=O)n1N=Cc1cccnc1` displayed a melting point of 176 to 178 °C.

Compound `COc1cc(OC)nc(NC(=O)NS(=O)(=O)c2sccc2C(CCl)OC(C)=O)n1` (configuration not stated) had a melting point of 150 to 151 °C.

For the compound `CCCCc1cnc2ccc(C(=O)O)cc2c1O`, the melting point turned out to be 260 °C.

On to `CCn1c(OC)n[nH]c1=O`, for which the melting point is 130 °C.

As to `CC(c1oc2ccccc2c(=O)c1-c1cccc(F)c1)n1nc(-c2ccc3c(c2)CCO3)c2c(N)ncnc21` (configuration not stated), the melting point lay within 238 to 241 °C.

As for `O=C1C(Br)=C(c2ccccc2)C(=O)N1Nc1ccccc1`, the melting point is 146 to 147 °C.

As to `CCCCC(C(O)c1ccc(Cl)cc1)n1cncn1` (configuration not stated), the melting point was in the range of 93 to 94 °C.

`FC(F)(F)c1ccc(C2CNCc3[nH]c4ccccc4c32)cc1` (configuration not stated) returned a melting point of 172 to 174 °C.

In turn, `C=Cc1c(C(=O)O)nc(Cl)c(F)c1N` came in with a melting point of 164 to 166 °C.

For the compound `Cc1ccc(-c2ccc(C(=O)Nc3ccc4cc(CN5C(C)(C)CCCC5(C)C)ccc4c3)cc2)cc1`, the melting point was 235 to 237 °C.

For the compound `CN1C(=O)C(C)(C)C(=O)Nc2cc(C#N)ccc21`, the melting point lay in the range of 289 to 294 °C.

For the compound `CC(=N)Nc1cccc([N+](=O)[O-])c1`, the melting point lay in the range of 226 to 228 °C.

In the case of `CCOC(=O)CCC1(NC(=O)c2ccc(Cl)c(Cl)c2)C(=O)Nc2ccccc21` (configuration not stated), the melting point was in the range of 227 to 228 °C.

The compound `CC(=O)c1ccc(CCN2CCN(c3ccc(Cl)cc3)CC2)cc1` showed a melting point of 141 to 143 °C.

`COC(=O)c1ccc2cc(-c3ccc4c(c3)C(C)(C)CCC4(C)C)n(C)c2c1` showed a melting point of 156 °C.

Consider `Cc1nc2cc3c(cc2[nH]1)NC(=O)C3(C)C`, for which the melting point is above 300 °C.

Take `Cc1c(-c2cc(C#N)ccc2F)sc2nc(N)[nH]c(=O)c12`: the melting point was 332 to 336 °C.

Turning to `CC12CCC(=O)C=C1CCC1C3CC(OCCOC4CCCCO4)C(O)(C(=O)CO)C3(C)CC(O)C12F` (configuration not stated), the melting point was 196 to 200 °C.

In turn, `Clc1ccc(-c2ccc[nH]2)cc1Cl` showed a melting point of 49 to 51 °C.

The compound `CCSC1(SCC)C(=O)CC2C3CCC4=CC(=O)C=CC4(C)C3(F)C(O)CC21C` (configuration not stated) gave a melting point of 268 to 270 °C.

On to `NC1(C2CCCC2)NC=Nc2[nH]cc(-c3cccc(Oc4ccccc4)c3)c21` (configuration not stated), for which the melting point was 128 °C.

`O=C1NCCN1OCc1ccccc1` displayed a melting point of 64 to 65 °C.

As to `COc1cc2cnnc(N3CCC4(CC3)OCCCO4)c2cc1OC`, the melting point was 194 to 196 °C.

For `COc1cc2c(cc1OC)C(=O)C(C#N)C2` (configuration not stated), the melting point fell in the range of 177 to 179 °C.

Compound `Cc1ccc(O[C@H]2CCN(C(=O)OCc3ccccc3)C[C@H]2O)cc1C` (relative stereo) displayed a melting point of 140 to 143 °C.

Consider `Cc1cc(C(=O)N2Cc3cccn3Cc3ccccc32)ccc1C1=CCCCC1(C)C`, for which the melting point was 131 °C.

In turn, `O=C(O)C1=CC2=CCCC=C2Sc2c1ccc1c2CCC1` displayed a melting point of 77 °C.

As for `O=C(O)c1ccc(-c2coc3ccccc23)cc1`, the melting point is 222 to 225 °C.

`CCCC(C)(C)C(=O)O[C@H]1C[C@H](O)C=C2C=C[C@H](C)[C@H](CC[C@@H]3C[C@@H](O)CC(=O)O3)[C@H]21`: the melting point is 143 to 144 °C.

`Cc1ccccc1-c1nc2ccccc2[nH]1` had a melting point of 215 °C.

Regarding `COc1c(O)ccc(C(=O)c2ccccc2)c1Cl`, the melting point was in the range of 123 to 125 °C.

In turn, `N#CC1Nc2ccccc2N2CCc3cccc1c32` (configuration not stated) yielded a melting point of 185 to 186 °C.

On to `C#CCN1CCC(N2C(=O)Nc3ccccc3C2c2ccccc2)CC1` (configuration not stated), for which the melting point is 198 to 201 °C.

Regarding `CC(C)n1c(=O)c(=O)[nH]c2ccccc21`, the melting point was in the range of 227 to 228 °C.

Consider `CCC1(c2cc(NC(=O)c3c(OC)cccc3OC)no2)CCCCC1`, for which the melting point is 179 to 181 °C.

The compound `CCOC(=O)CCCN(C(=O)c1ccc(F)cc1)c1ccccc1-c1ccccc1` returned a melting point of 83 to 84 °C.

As to `NNc1c(F)c(F)c(C(F)(F)F)c(F)c1Cl`, the melting point was 91 to 92 °C.

In turn, `COc1ccc(CNc2cc(Cn3c(C(=O)c4cc(C)cc(C#N)c4)c(C(C)C)c(=O)[nH]c3=O)c(F)c(F)n2)cc1` yielded a melting point of 133 to 134 °C.

`Cc1n[nH]c(=O)cc1-c1ccc(OC2CCN(C(=O)OC(C)(C)C)CC2)cc1` returned a melting point of 184 to 186 °C.

In the case of `CCCc1nc2c(N)nc3cc(OCC(=O)c4ccccc4)ccc3c2n1CC(C)C`, the melting point was 178 to 180 °C.

`C[Si](C)(C)C#Cc1ccc2c(c1)C1(c3ccccc3-c3ccccc31)c1cc(C#C[Si](C)(C)C)ccc1-2` yielded a melting point of 267 to 269 °C.

Compound `CNCC1CN(c2c(F)cc3c(=O)c(C(=O)O)cn(C4CC4)c3c2F)CCO1` (configuration not stated) yielded a melting point of 257 to 259 °C.

The compound `CC(C)(C)OC(=O)Nc1cc(OCC#N)c(I)cc1[N+](=O)[O-]` displayed a melting point of 125 °C.

In turn, `COc1ccc2[nH]c(=O)n3c(=O)[nH]nc3c2c1` registered a melting point above 350 °C.

In the case of `O=C(O)c1cc(-c2ccc(Cl)cc2)nn1Cc1ccc(Cl)cc1Cl`, the melting point was determined as 218 °C.

Turning to `Cc1sc2c(c1C(=O)c1ccc(N(C)C)cc1)CCC2C(=O)O` (configuration not stated), the melting point fell in the range of 171 to 173 °C.

In turn, `CCCCc1ccc(Cn2cc(C3c4ccccc4C=Cc4ccccc43)c(=S)[nH]c2=O)cc1C(=O)O` registered a melting point of 230 °C.

Compound `O=CC(=Cc1ccccc1OCc1ccc(Cl)cc1)C(C=O)=Cc1ccccc1OCc1ccc(Cl)cc1` displayed a melting point of 186 to 187 °C.

For `Cc1cc(Cl)cc(C(=O)Nc2nc(C)cs2)n1`, the melting point is 176 °C.

For the compound `CCc1cccc2c(C=O)cc(OC)c(O)c12`, the melting point fell in the range of 114 to 115 °C.

With `O=C(c1ccc(Cl)cc1)[C@H]1C[C@H]1C(=O)O` (relative stereo), the melting point lay in the range of 150 to 153 °C.

`CCCNc1c2c(nc3ccccc13)CCCC2=O` displayed a melting point of 145 °C.

Compound `COC(=O)C(CCO)NS(=O)(=O)c1ccc(Cl)cc1` (racemic) gave a melting point of 91 to 92 °C.

The compound `O=C(Nc1cccc2c(=O)cc(C(=O)O)oc12)c1ccc2c(c1)CCC(CCCc1ccccc1)O2` (configuration not stated) gave a melting point of 325 to 326 °C.

On to `COc1cc(Cl)c(C(=O)Nc2ccc(C(C)(C)C#N)cc2)cc1OC`, for which the melting point lay within 142 to 144 °C.

For `Cc1ccccc1C(=O)N1CCC(=O)c2cc(F)c(Cl)cc21`, the melting point fell in the range of 84.9 to 88.7 °C.

`Cc1[nH]c(=S)n(Nc2cccc(Cl)c2)c1-c1ccc(Cl)cc1` showed a melting point of 225 °C.

The compound `CC1(C)C(=O)C(c2ccccc2)=C1c1ccc(S(N)(=O)=O)cc1` had a melting point of 142 to 144 °C.

Compound `OC1CSC(Oc2cc(-c3ccc(F)nc3)cnc2F)C(O)C1O` (configuration not stated) displayed a melting point of 158 to 159 °C.

In turn, `O=C(O)CCNC(=O)[C@H](Cc1ccc(-c2ccccc2)cc1)NCP(=O)(O)Oc1ccccc1` registered a melting point of 222 to 223 °C.

Values taken from a melting point compilation (Tetko et al.; mined from patent text by program, amines drawn as free bases though some values may be those of a salt).
